Read-outs that look alike come from different tables or passages of the source.
How the values were obtained:
[1] = test system: NO production in LPS-activated RAW 264.7 cells; assay: Nitric oxide production assay in LPS-activated RAW 264.7 cells; assay type: cell-based; details: Mus musculus, read-out: IC50 (50% inhibitory concentration), LPS-induced NO production
[2] = Cytotoxicity (CC50) in macrophages; assay type: cell-based; details: mouse
Text: Table 3 Inhibitory effect of 9, 22, 23 and 25 on LSP-induced NO production in macrophages | column: CC50^c (µM)

[3] = test system: A/WSN/33/2009 (H1N1) virus; assay: microbe, parasite or virus in culture; assay type: cell-based; details: Influenza A virus, MDCK, 48 h; read-out: IC50 against A/WSN/33/2009 (H1N1) virus
[4] = test system: nucleoprotein expression in influenza virus-infected MDCK cells; assay type: cell-based, influenza A virus; details: 20 at 50 μM, 2, 5 and 8 h
[5] = target: hemagglutinin (HA) of influenza A/WSN/33/2009 (H1N1) (Influenza A virus, UniProt P03454); details: chicken RBCs without virus
hemagglutinin (HA) of influenza A/WSN/33/2009 (H1N1), sequence (P03454 18-342 limits assumed): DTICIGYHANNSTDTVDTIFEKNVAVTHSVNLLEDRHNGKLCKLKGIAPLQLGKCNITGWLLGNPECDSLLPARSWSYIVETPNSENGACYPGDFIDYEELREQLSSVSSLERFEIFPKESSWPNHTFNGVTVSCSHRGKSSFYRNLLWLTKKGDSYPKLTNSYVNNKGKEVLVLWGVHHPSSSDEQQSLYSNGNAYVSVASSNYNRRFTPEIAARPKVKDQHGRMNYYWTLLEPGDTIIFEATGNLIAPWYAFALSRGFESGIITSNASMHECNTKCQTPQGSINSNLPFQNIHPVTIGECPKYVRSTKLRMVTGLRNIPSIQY
hemagglutinin (HA) of influenza A/WSN/33/2009 (H1N1), sequence (P03454 344-565 partner limits assumed): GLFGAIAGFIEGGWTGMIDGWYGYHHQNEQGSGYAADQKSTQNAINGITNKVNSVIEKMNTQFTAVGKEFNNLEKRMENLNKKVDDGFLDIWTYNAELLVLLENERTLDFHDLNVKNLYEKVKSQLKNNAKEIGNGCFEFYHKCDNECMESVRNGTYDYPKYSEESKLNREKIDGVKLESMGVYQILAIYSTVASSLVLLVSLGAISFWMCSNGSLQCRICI

[6] = test system: A/WSN/33/2009 (H1N1) virus in MDCK cells; assay type: cell-based, influenza A virus; details: 20 at 50 μM, versus DMSO group
[7] = RAW264.7, LPS (1 μg/ml) activated RAW 264.7 cells, 24 h
[8] = macrophages, read-out: CC50 (50% cytotoxic concentration)

Structure (SMILES)	IC50 [1, 7] [µM]	CC50 [2, 8] [µM]	also measured
O=c1cc(-c2ccc(O)c(O)c2)oc2cc(O)cc(O)c12 [Compound 9, luteolin]	22.8	–	CC50 [2]: > 50 µM
COC(=O)[C@H]1c2c(/C=C/C(=O)O[C@H](Cc3ccc(O)c(O)c3)C(=O)O)ccc(O)c2O[C@@H]1c1ccc(O)c(O)c1 [Compound 20, methyl lithospermate]	–	–	IC50 [3]: 20.5 µM; nucleoprotein protein expression (western blot) [4]: dramatically reduce the nucleoprotein protein expression; effect of the compound alone on red blood cells [5]: no effect on red blood cells; virus population / nucleoprotein distribution in infected cells (fluorescence microscopy) [6]: influenza virus could be inhibited
COC(=O)[C@H]1Oc2ccc(/C=C/C(=O)O/C=C\c3ccc(O)c(O)c3)cc2O[C@H]1c1ccc(O)c(O)c1 [Compound 22, hyprhombins A]	20.5	> 50	–
COC(=O)C[C@@H](OC(=O)/C=C/c1ccc(O)c(O)c1)c1ccc(O)c(O)c1 [Compound 23, 3-(3ʹʹʹ,4ʹʹʹ-dihydroxyphenyl)-acrylic acid 1-(3ʹʹ,4ʹʹ-dihydroxyphenyl)-2-methoxycarbonylethyl ester]	27.7	> 50	–
COC(=O)[C@H](Cc1ccc(O)c(O)c1)OC(=O)/C=C/c1ccc(O)c2oc(-c3ccc(O)c(O)c3)cc12 [Compound 25, methyl salvianol acid C]	30.1	> 50	–
[H]/N=C(/NC)NCCC[C@H](N)C(=O)O [L-NMMA, reference compound]	–	> 50	IC50 ([1]; RAW264.7, 24 h): 21.8 µM
CCOC(=O)C1=C[C@@H](OC(CC)CC)[C@H](NC(C)=O)[C@@H](N)C1 [oseltamivir, reference compound]	–	–	IC50 [3]: 6.85 µM

— paper PMC11063020, “Antiviral and anti-inflammatory activities of chemical constituents from twigs of Mosla chinensis Maxim” (Natural Products and Bioprospecting, 2024)
